{
  "source": "patent US9221834B2",
  "about": "(Merck Sharp & Dohme Corp., priority 2010, dated 2015)",
  "data": [
    {"target": "T1, recombinant CETP (rCETP) (Homo sapiens, UniProt P11597)", "T1 sequence (P11597 18-493)": "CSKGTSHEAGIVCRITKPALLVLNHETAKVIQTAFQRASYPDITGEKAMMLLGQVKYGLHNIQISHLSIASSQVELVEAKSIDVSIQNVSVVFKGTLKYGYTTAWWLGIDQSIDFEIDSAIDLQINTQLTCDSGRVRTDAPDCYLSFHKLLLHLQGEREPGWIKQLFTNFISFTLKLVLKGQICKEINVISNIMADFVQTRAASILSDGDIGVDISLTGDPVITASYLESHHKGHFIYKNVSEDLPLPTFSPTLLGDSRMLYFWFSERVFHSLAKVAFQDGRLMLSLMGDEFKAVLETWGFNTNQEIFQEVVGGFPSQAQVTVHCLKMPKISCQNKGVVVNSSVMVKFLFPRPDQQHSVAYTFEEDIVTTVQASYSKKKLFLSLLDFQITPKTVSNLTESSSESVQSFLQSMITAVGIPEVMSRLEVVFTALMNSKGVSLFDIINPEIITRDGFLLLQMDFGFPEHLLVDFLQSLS", "test": "RTA assay using recombinant CETP (2% RTA)", "format": "biochemical", "settings": "RTA assay in 2% human serum; read-out: IC50", "how_it_was_run": "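Compounds preincubated 1 h at 37 °C with assay cocktail (CETP buffer: 50 mM Tris pH 7.4, 100 mM NaCl, 1 mM EDTA; human HDL acceptor); transfer started with [3H]cholesteryl oleate- or [3H]triolein-labelled LDL, 60 min at 37 °C. LDL PEG-precipitated; supernatant counted by scintillation, blank-corrected; IC50 from 4-parameter sigmoidal fit of % inhibition vs DMSO control.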", "units": {"IC50": "nM"}, "values": [
      {"smiles": "COc1ccc(CCC(=O)O)cc1-c1cnc(N2CCC2)nc1CN1C(=O)O[C@H](c2cc(C(F)(F)F)cc(C(F)(F)F)c2)[C@@H]1C", "note": "[Example 171]", "IC50": 60},
      {"smiles": "COc1ccc(CCC(=O)O)cc1-c1cnc(N2CC(F)C2)nc1CN1C(=O)O[C@H](c2cc(C(F)(F)F)cc(C(F)(F)F)c2)[C@@H]1C", "note": "[Example 172]", "IC50": 35},
      {"smiles": "C[C@H]1[C@@H](c2cc(C(F)(F)F)cc(C(F)(F)F)c2)OC(=O)N1Cc1nc(N2CCC2)ncc1-c1cc([C@H]2CC[C@H](C(=O)O)CC2)ccc1Cl", "note": "[Example 173]", "IC50": 21},
      {"smiles": "COc1ccc(CCC(=O)O)cc1-c1cnc(N2CC(F)(F)C2)nc1CN1C(=O)O[C@H](c2cc(C(F)(F)F)cc(C(F)(F)F)c2)[C@@H]1C", "note": "[Example 174]", "IC50": 18},
      {"smiles": "COc1ccc(C(C)(C)CC(=O)O)cc1-c1cnc(N2CCC2)nc1CN1C(=O)O[C@H](c2cc(C(F)(F)F)cc(C(F)(F)F)c2)[C@@H]1C", "note": "[Example 175]", "IC50": 72},
      {"smiles": "COc1ccc(CCC(=O)O)cc1-c1cnc(N2CC(OC)C2)nc1CN1C(=O)O[C@H](c2cc(C(F)(F)F)cc(C(F)(F)F)c2)[C@@H]1C", "note": "[Example 176]", "IC50": 415},
      {"smiles": "C[C@H]1[C@@H](c2cc(C(F)(F)F)cc(C(F)(F)F)c2)OC(=O)N1Cc1nc(N2CC(F)(F)C2)ncc1-c1cc([C@H]2CC[C@H](C(=O)O)CC2)ccc1Cl", "note": "[Example 177]", "IC50": 19},
      {"smiles": "Cc1cc(C(=O)O)ccc1-c1ccc(C)c(-c2cnc(N3CC(F)(F)C3)nc2CN2C(=O)O[C@H](c3cc(C(F)(F)F)cc(C(F)(F)F)c3)[C@@H]2C)c1", "note": "[Example 178]", "IC50": 6},
      {"smiles": "COc1cc(F)c(-c2cnc(C(=O)O)cc2C)cc1-c1cnc(N2CC(F)(F)C2)nc1CN1C(=O)O[C@H](c2cc(C(F)(F)F)cc(C(F)(F)F)c2)[C@@H]1C", "note": "[Example 183]", "IC50": 14},
      {"smiles": "Cc1cc(C(=O)O)ccc1-c1cc(-c2cnc(N3CC(F)(F)C3)nc2CN2C(=O)O[C@H](c3cc(C(F)(F)F)cc(C(F)(F)F)c3)[C@@H]2C)ccc1F", "note": "[Example 184, 5′-[4-({(4S,5R)-5-[3,5-bis(trifluoromethyl)phenyl]-4-methyl-2-oxo-1,3-oxazolidin-3-yl}methyl)-2-(3,3-difluoroazetidin-1-yl)pyrimidin-5-yl]-2′-fluoro-2-methylbiphenyl-4-carboxylic acid]", "IC50": 12},
      {"smiles": "COc1ccc([C@H]2CC[C@H](C(=O)O)CC2)cc1-c1cnc(N2CC(F)C2)nc1CN1C(=O)O[C@H](c2cc(C(F)(F)F)cc(C(F)(F)F)c2)[C@@H]1C", "note": "[Example 185]", "IC50": 12},
      {"smiles": "COc1ccc([C@H]2CC[C@H](C(=O)O)CC2)cc1-c1cnc(N2CC(OC)C2)nc1CN1C(=O)O[C@H](c2cc(C(F)(F)F)cc(C(F)(F)F)c2)[C@@H]1C", "note": "[Example 186]", "IC50": 137},
      {"smiles": "COc1c(F)cc(-n2ncc(C(=O)O)c2C(F)(F)F)cc1-c1cnc(N2CC(F)(F)C2)nc1CN1C(=O)O[C@H](c2cc(C(F)(F)F)cc(C(F)(F)F)c2)[C@@H]1C", "note": "[Example 187]", "IC50": 4},
      {"smiles": "COc1c(F)cc(-c2ncc(C(=O)O)cc2Cl)cc1-c1cnc(N2CC(F)(F)C2)nc1CN1C(=O)O[C@H](c2cc(C(F)(F)F)cc(C(F)(F)F)c2)[C@@H]1C", "note": "[Example 188]", "IC50": 18},
      {"smiles": "COc1cc(F)c(-c2ncc(C(=O)O)cc2Cl)cc1-c1cnc(N2CC(F)(F)C2)nc1CN1C(=O)O[C@H](c2cc(C(F)(F)F)cc(C(F)(F)F)c2)[C@@H]1C", "note": "[Example 189]", "IC50": 5},
      {"smiles": "COc1cc(F)c(-c2cc(C(F)(F)F)c(C(=O)O)cn2)cc1-c1cnc(N2CC(F)(F)C2)nc1CN1C(=O)O[C@H](c2cc(C(F)(F)F)cc(C(F)(F)F)c2)[C@@H]1C", "note": "[Example 190]", "IC50": 146},
      {"smiles": "COc1ccc(-n2ncc(C(=O)O)c2C(F)(F)F)cc1-c1cnc(N2CC(F)(F)C2)nc1CN1C(=O)O[C@H](c2cc(C(F)(F)F)cc(C(F)(F)F)c2)[C@@H]1C", "note": "[Example 191]", "IC50": 9},
      {"smiles": "COc1ccc(CCC(=O)N2CCC2)cc1-c1cnc(N2CCC2)nc1CN1C(=O)O[C@H](c2cc(C(F)(F)F)cc(C(F)(F)F)c2)[C@@H]1C", "note": "[Example 193]", "IC50": 105},
      {"smiles": "COc1ccc([C@H]2CC[C@H](C(=O)OC)CC2)cc1-c1ccc(N2CCC2)nc1CN1C(=O)O[C@H](c2cccc(C(F)(F)F)c2)[C@@H]1C", "note": "[Example 194]", "IC50": 145},
      {"smiles": "COC(=O)CC(C)(C)c1ccc(OC)c(-c2ccc(N3CCC3)nc2CN2C(=O)O[C@H](c3cccc(C(F)(F)F)c3)[C@@H]2C)c1", "note": "[Example 195]", "IC50": 44},
      {"smiles": "COc1ccc(CC(C)(C)C(=O)OC(C)(C)C)cc1-c1ccc(N2CCC2)nc1CN1C(=O)O[C@H](c2cccc(C(F)(F)F)c2)[C@@H]1C", "note": "[Example 196]", "IC50": 381},
      {"smiles": "CCOC(=O)CCc1ccc(OC)c(-c2ccc(N3CCC3)nc2CN2C(=O)O[C@H](c3cccc(C(F)(F)F)c3)[C@@H]2C)c1", "note": "[Example 197]", "IC50": 59},
      {"smiles": "CCOC(=O)CCc1ccc(OC)c(-c2ccc(N3CCC3)nc2CN2C(=O)O[C@H](c3cc(C)cc(C)c3)[C@@H]2C)c1", "note": "[Example 198]", "IC50": 50},
      {"smiles": "CCOC(=O)CCc1ccc(OC)c(-c2ccc(N3CCC3)nc2CN2C(=O)O[C@H](c3cccc(C)c3)[C@@H]2C)c1", "note": "[Example 199]", "IC50": 237},
      {"smiles": "COc1ccc([C@H]2CC[C@H](C(=O)OC)CC2)cc1-c1ccc(N2CCC2)nc1CN1C(=O)O[C@H](c2cc(C)cc(C)c2)[C@@H]1C", "note": "[Example 200]", "IC50": 55},
      {"smiles": "COc1ccc([C@H]2CC[C@H](C(=O)OC)CC2)cc1-c1ccc(N2CCC2)nc1CN1C(=O)O[C@H](c2cccc(C)c2)[C@@H]1C", "note": "[Example 201]", "IC50": 166},
      {"smiles": "COC(=O)CC(C)(C)c1ccc(OC)c(-c2ccc(N3CCC3)nc2CN2C(=O)O[C@H](c3cc(C)cc(C)c3)[C@@H]2C)c1", "note": "[Example 202]", "IC50": 16},
      {"smiles": "COC(=O)CC(C)(C)c1ccc(OC)c(-c2ccc(N3CCC3)nc2CN2C(=O)O[C@H](c3cccc(C)c3)[C@@H]2C)c1", "note": "[Example 203]", "IC50": 106},
      {"smiles": "CCOC(=O)C[C@@H]1CCc2cc(OC)c(-c3ccc(N4CCC4)nc3CN3C(=O)O[C@H](c4cccc(C(F)(F)F)c4)[C@@H]3C)cc21", "note": "[Example 204]", "IC50": 114},
      {"smiles": "CCOC(=O)C[C@@H]1CCc2cc(OC)c(-c3ccc(N4CCC4)nc3CN3C(=O)O[C@H](c4cc(C)cc(C)c4)[C@@H]3C)cc21", "note": "[Example 205]", "IC50": 54},
      {"smiles": "CCOC(=O)C[C@@H]1CCc2cc(OC)c(-c3ccc(N4CCC4)nc3CN3C(=O)O[C@H](c4cccc(C)c4)[C@@H]3C)cc21", "note": "[Example 206]", "IC50": 203},
      {"smiles": "CCOC(=O)[C@@H]1C[C@H]1c1ccc(OC)c(-c2ccc(N3CCC3)nc2CN2C(=O)O[C@H](c3cccc(C(F)(F)F)c3)[C@@H]2C)c1", "note": "[Example 207]", "IC50": 44},
      {"smiles": "CCOC(=O)[C@@H]1C[C@H]1c1ccc(OC)c(-c2ccc(N3CCC3)nc2CN2C(=O)O[C@H](c3cc(C)cc(C)c3)[C@@H]2C)c1", "note": "[Example 208]", "IC50": 25},
      {"smiles": "CCOC(=O)[C@@H]1C[C@H]1c1ccc(OC)c(-c2ccc(N3CCC3)nc2CN2C(=O)O[C@H](c3cccc(C)c3)[C@@H]2C)c1", "note": "[Example 209]", "IC50": 99},
      {"smiles": "COC(=O)c1ccc(-c2ccc(OC)c(-c3ccc(N4CCC4)nc3CN3C(=O)O[C@H](c4cccc(C(F)(F)F)c4)[C@@H]3C)c2)c(C)c1", "note": "[Example 210]", "IC50": 22},
      {"smiles": "COC(=O)c1ccc(-c2ccc(OC)c(-c3ccc(N4CCC4)nc3CN3C(=O)O[C@H](c4cc(C)cc(C)c4)[C@@H]3C)c2)c(C)c1", "note": "[Example 211]", "IC50": 23},
      {"smiles": "COC(=O)c1ccc(-c2ccc(OC)c(-c3ccc(N4CCC4)nc3CN3C(=O)O[C@H](c4cccc(C)c4)[C@@H]3C)c2)c(C)c1", "note": "[Example 212]", "IC50": 75}
    ]}
  ]
}
